What was measured:
[1] = tested on: orexin-deficient mice; experiment: Orexin-deficiency model: number of narcoleptic episodes (behavioral arrests); format: in vivo
Description: Male transgenic mice with a knockout of the orexin peptide gene are used. Orexin-deficient mice express a phenotype with cataplexy events (observed as ‘behavioral arrests’) and a disrupted sleep pattern including fragmented sleep and sleepiness in their active period.
The animals are observed and videotaped via infrared cameras during the first hours of the lights-off period which is the active phase of nocturnal rodents like mice. At this time, orexin-deficient mice show the most ‘behavioral arrests’. The number of these events can be furthermore increased by presenting a new environment. For this purpose, new saw dust, a running wheel, marbles and tunnels are placed in the test environment. The number of ‘behavioral arrests’ are offline counted by the experimenter for each hour of recording. Behavioral arrests were defined by phases of total inactivity outside the next box, which last longer than 10 second, preceded and followed by robust locomotor activity (see also Scammell et al., 2009, Sleep 32(1): 111-116). Some of the animals have temporal skull EEG electrodes implanted which are connected to transmitters. The EEG is recorded via a receiver and stored on a PC for further analysis. EEG is used to assess and to quantify sleep behavior and vigilance stage.
A cross-over design is used because of the high inter- and intra-individual variability of the behaviors to be observed. Furthermore, to avoid habituation to the test environment, the animals are only tested once per week in the test environment. During the remaining days, the animals are in their homecage.
For each experimental session, 3-4 mice are put into the test environment 3 hours before lights-off. The first experimental session (week 1) is used to get a baseline (without treatment). The second and third sessions (weeks 2+3) are used for treatment (vehicle & compound, cross-over design, administration 5 minutes before lights-off). The fourth and last experimental session is again without treatment to evaluate a post-treatment baseline.

[2] = tested on: Cynomolgus monkey; experiment: Signs for emergence from ketamine/sevoflurane anesthesia in nonhuman primate (PET experiment); format: in vivo
Protocol: Said experiment was performed on the α7 nAChR in the non-human primate (NHP) brain.
An animal (Cynomolgus monkey, male, 5.8 kg) was anesthesized for the entire duration of the PET experiment, i.e. for approximately 7.5 hours. Due to the nature of these experiments, it is crucial that anesthesia is maintained.
General anesthesia was induced by i.m. injection of ketamine hydrochloride (10 mg/kg, Ketaminol, Intervet AB). The animal was intubated and general anesthesia was maintained by inhalational administration of sevoflurane (1.5-8%, Abbott Scandinavia AB). Body temperature was maintained by Bair Hugger Model 505 (Arizant Healthcare Inc., Eden Prairie, Minn., USA). ECG, pulse, blood pressure, respiration rate, oxygen saturation and tidal CO2 level were monitored continuously during the experiment. Ventilation of the animal (breathing frequency and volume) was controlled by machine during the general anesthesia. The animal underwent two consecutive PET scans. The PET ligand was administered i.v. at doses too low to have a pharmacodynamic effect (i.e. total dose of 0.16 and 0.25 μg). Before the start of the second PET scan, 10 mg/kg of compound A-1 was administered to the animal using an oral gavage tube.

[3] = tested on: brain tMHA levels; experiment: Brain tele-methylhistamine (tMHA) levels by LC-MS; format: in vivo, mice; details: oral, 30 minutes after administration
Protocol: Histamine (HA) is released all over the brain by tuberomammillary nucleus neurons. […] HA is metabolized by histamine-N-methyltransferase to tele-methylhistamine (tMHA) in some tissues, including brain.
Mice (n=8) were treated during the first hour of the lights-on period and sacrificed 30 min later. Brain tissue was collected and subjected to LC-MS analysis (Croyal et al. Analytical Biochemistry, 2011, 409:28-36) to determine t-MHA levels.

[4] = cited from earlier work
[5] = tested on: mice; experiment: EEG assessment of sleep behavior and vigilance stage; format: in vivo; details: for Active wake (β and γ frequencies), mean difference drug-vehicle / NREM (δ frequency), mean difference drug-vehicle / Quiet wake (α frequency), mean difference drug-vehicle / REM (θ frequency), mean difference drug-vehicle: 30 mg/kg oral
Protocol: Animals have temporal skull EEG electrodes implanted which are connected to transmitters. Animals were group-housed (2-4) per cage at a constant temperature of 22±1° C., on a 12:12 light-dark schedule. The EEG is recorded via a receiver and stored on a PC for further analysis. EEG is used to assess and to quantify sleep behavior and vigilance stage.
Animals were given a 1-day period of acclimatization in the recording cages with recording cables connected. On the 1st day of the experiment, EEG recordings were made continuously during a 22-hours period beginning at 11 A.M., 15 min after vehicle administration. On the second day of the experiment, EEG recordings were carried out in the same way, but 15 minutes after drug administration. In this way, each animal served as its own control. 10 animals were recorded from simultaneously in each experiment. Automatic evaluation of the nycthemeral cycle (REM sleep, classical sleep, wakefulness and an awake non-vigilant state termed “drowsiness”) was performed as described (Vigouret et al., 1978 Pharmacology 16 Suppl 1:156-73). In the present context, “quiet wake” and “active wake”, describe conscious animals in a resting and an active state, respectively, while “REM” and “NREM” represent sleep states.
FIG. 3 depicts the effects of 30 mg/kg compound B-1, orally administered 6 h after lights on (9:00) in mice (n=10) on quiet wake (α frequency, 9.5-12.5 Hz), active wake (β frequency, 12.5-30.5 Hz; and γ frequency, >30.5 Hz), REM sleep (θ frequency, 4.5-9.5 Hz) and NREM sleep (δ frequency, <4.5 Hz). Assessment period shown is 3 hours.

[6] = 30 mg/kg oral 6 h after lights on, 3 hours assessment

Compound: C[C@H]1[C@H](Oc2ccc(-c3ccc4[nH]ccc4c3)nn2)C2CCN1CC2 [B-4, (2S,3R)-3-[6-(1H-indol-5-yl)-pyridazin-3-yloxy]-2-methyl-1-aza-bicyclo[2.2.2]octane]
- decrease of number of narcoleptic episodes, whole 4 hours observation period ([1]; 3 mg/kg orally directly before lights-off, p=0.03): ca. 25%
- reduction of number of narcoleptic episodes, first hour ([1]; 3 mg/kg orally directly before lights-off, p=0.04): ca. 47%

Compound: C[C@H](OC(=O)N[C@@H]1CN2CCC1CC2)c1ccccc1F [A-1, (S)-(1-aza-bicyclo[2.2.2]oct-3-yl)-carbamic acid (S)-1-(2-fluoro-phenyl)-ethyl ester]
- change in breathing behavior (sign for emergence from general anesthesia) ([2]; 10 mg/kg oral gavage, fifteen minutes after administration, sevoflurane 2.9%): shallow breathing was observed
- doses of sevoflurane necessary to maintain anesthesia after the compound ([2]; rest of experiment (about two hours) after 10 mg/kg oral, 2.6-2.9% before the compound): 3.0-3.7%
- brain tMHA levels ([3]; 10 mg/kg dose): significant elevation

Compound: CCCC(C)C1(CC)C(=O)NC(=S)NC1=O (centres unmarked) [thiopentone]
- dose remaining in the body ([4]; at 24 hours): ≤ 30%
- elimination by oxidative metabolism in the liver, rate ([4]; in vivo): 15 % per hour
- elimination half-life ([4]; in vivo): 3.4 to 22 h
- initial drug effect terminated by redistribution, time ([4]; in vivo): 5 to 15 min

Compound: Cc1ccc(-c2ccc(O[C@H]3CN4CCC3CC4)cn2)cc1 [B-1, (R)-3-(6-p-tolyl-pyridin-3-yloxy)-1-aza-bicyclo[2.2.2]octane]
- effect on NREM sleep [5, 6]: decline of NREM sleep
- effect on time spent in quiet wake [5, 6]: increases the time spent in quiet wake
- Active wake (β and γ frequencies), mean difference drug-vehicle ([5]; time point 9:30): 0.9 min
- NREM (δ frequency), mean difference drug-vehicle ([5]; time point 9:30): -12.4 min
- Quiet wake (α frequency), mean difference drug-vehicle ([5]; time point 9:30): 14.3 min
- REM (θ frequency), mean difference drug-vehicle ([5]; time point 9:30): -2.2 min
- Active wake (β and γ frequencies), mean difference drug-vehicle ([5]; time point 10:30): 3.6 min
- NREM (δ frequency), mean difference drug-vehicle ([5]; time point 10:30): -7.1 min
- Quiet wake (α frequency), mean difference drug-vehicle ([5]; time point 10:30): 6.1 min
- REM (θ frequency), mean difference drug-vehicle ([5]; time point 10:30): -2.1 min
- Active wake (β and γ frequencies), mean difference drug-vehicle ([5]; time point 11:30): 0.1 min
- NREM (δ frequency), mean difference drug-vehicle ([5]; time point 11:30): 2.1 min
- Quiet wake (α frequency), mean difference drug-vehicle ([5]; time point 11:30): -1.8 min
- REM (θ frequency), mean difference drug-vehicle ([5]; time point 11:30): -0.9 min
- Active wake (β and γ frequencies), mean difference drug-vehicle ([5]; time point 12:30): 0.3 min
- NREM (δ frequency), mean difference drug-vehicle ([5]; time point 12:30): -0.1 min
- Quiet wake (α frequency), mean difference drug-vehicle ([5]; time point 12:30): -0.9 min
- REM (θ frequency), mean difference drug-vehicle ([5]; time point 12:30): -0.2 min
- brain tMHA levels ([3]; all doses tested): significantly elevated
- decrease of number of narcoleptic episodes, first hour of the observation period ([1]; 10 mg/kg orally directly before lights-off, p<0.05 Anova): ca. 66%
